Laboratory results as given in patent US20150258052A1, “METHODS OF USING FEXARAMINE AND AGENTS THAT INCREASE SYMPATHETIC NERVOUS SYSTEM ACTIVITY TO PROMOTE BROWNING OF WHITE ADIPOSE TISSUE” (Salk Institute for Biological Studies, priority 2014, published 2015).

How the values were obtained:
DIO mice [1] = test: Chronic oral fexaramine in diet-induced obesity (DIO) mice: weight, adiposity, serum parameters, GTT, ITT; assay type: in vivo; settings: for glucose tolerance (glucose tolerance test) / insulin sensitivity (insulin tolerance test): PO 5 weeks
Method: FIGS. 2A-2G are graphs illustrating the reduction of diet-induced obesity and improvement in metabolic homeostasis with fexaramine. Mice were fed a high fat diet (HFD) for 14 weeks and then administered daily oral injections of vehicle (open boxes) or fexaramine (100 mg/kg) (solid boxes) for 5 weeks with HFD. Data represent the mean±STD. Statistical analysis was performed with the Student's t test (*p<0.05, **p<0.01).
FIG. 2A is a line chart illustrating changes in body weight of mice fed a high fat diet (HFD) for 14 weeks and then administered daily oral injections of vehicle (open boxes) or fexaramine (100 mg/kg) (solid boxes) for 5 weeks with HFD. n=8 per group.
(§1) FIG. 4A is a line graph showing the effects of fexaramine at various dosage levels on the body weight of mice fed a HFD for 14 weeks and then administered daily oral injections of vehicle or fexaramine (10, 50 or 100 mg/kg) for 5 weeks with a HFD. Data represent the mean±STD. Statistical analysis was performed with the Student's t test (*p<0.05, **p<0.01).
FIG. 4B is a set of digital images showing histological analysis of the ileum and colon following treatment with fexaramine or vehicle. Mice were fed on HFD for 14 weeks, and then administered daily oral injections of vehicle or fexaramine (100 mg/kg) for 5 weeks with HFD.
as §1, with “4C” for “4A”, “glucose tolerance tests in” for “the effects of fexaramine at various dosage levels on the body weight of”, “with” for “with a”
The physiological effects of fexaramine in established obesity (diet-induced obesity, DIO) models were evaluated. C57BL/6J mice were fed a diet of 60% fat for 14 weeks and then treated PO with vehicle or fexaramine (100 mg/kg) for 5 weeks. […] Analyses of serum metabolic parameters including leptin, insulin, cholesterol, and resistin reflected that fexaramine-mediated weight gain resistance is accompanied by improved endocrine and metabolic profiles (FIGS. 2D and 4D).
Obesity and its metabolic complications are associated with chronic low-grade inflammation, reflected by elevated serum levels of inflammatory cytokines. […] Therefore, glucose tolerance tests (GTTs) and insulin tolerance tests (ITTs) were performed to determine if glucose homeostasis was improved in fexaramine-treated DIO mice.

DIO mice [2] = test: Hyperinsulinemic-euglycemic clamp and liver analysis in Fex-treated DIO mice; assay type: in vivo
Method: Mice were fed HFD for 14 weeks and then subjected to daily PO injection of vehicle or fexaramine (100 mg/kg) for 5 weeks with HFD. In the bar graphs, open bars are vehicle, solid bars are fexaramine, and data represent the mean±STD. Statistical analysis was performed with the Student's t test (*p<0.05, **p<0.01).
FIGS. 15I-15K are a line graph and two bar graphs showing the effect of fexaramine treatment on body weight, insulin-stimulated GDR, and fasting insulin levels. Mice were fed HFD for 14 weeks, and then administered daily oral injections of vehicle or fexaramine (100 mg/kg) for 3 weeks with HFD. The mice treated with fexaramine were initially heavier (by 2-3 grams). Three weeks after treatment, a clamp study was performed on the mice. Data represent the mean±STD. Statistical analysis was performed with the Student's t test (*p<0.05, **p<0.01).
Liver insulin resistance has been linked to obesity-induced hepatic steatosis (Cohen et al., Science 332:1519-1523, 2011). […] Furthermore, decreased serum alanine aminotransferase (ALT) levels were measured in Fex-treated mice, indicating reduced HFD-induced liver damage (FIG. 15H). Thus, in DIO mice Fex promotes hepatic insulin sensitization, reduced steatosis, improved metabolic markers, decreased ALT and enhanced BAT activity.

[3] = DIO mice, chronic Fex treatment

With COC(=O)/C=C/c1cccc(N(Cc2ccc(-c3ccc(N(C)C)cc3)cc2)C(=O)C2CCCCC2)c1 [Fex, fexaramine] the “intestinal toxicity (histology of ileum and colon)” value (DIO mice [1]; DIO mice, 100 mg/kg PO 5 weeks) was “no signs of intestinal toxicity”, the “overall fat mass (MRI)” value (DIO mice [1]; DIO mice, 100 mg/kg PO 5 weeks) was “reduced overall fat mass” and the “serum levels of inflammatory cytokines TNFα, IL-1α, IL-1β, IL-17 and MCP-1” value (DIO mice [1]; DIO mice, 100 mg/kg PO 5 weeks) was “markedly decreased”. For the same molecule, the “wet weights of subcutaneous (inguinal) and visceral (gonadal and mesenteric) adipose depots” value (DIO mice [1]; DIO mice, 100 mg/kg PO 5 weeks) was “significant reductions”, the “glucose, insulin, leptin, cholesterol and resistin levels” value (DIO mice [1]; DIO mice, 100 mg/kg PO 5 weeks, serum after 8 hours fasting) was “reduced glucose, insulin, leptin, cholesterol, and resistin levels” and the “prevention of weight gain, dose dependence” value (DIO mice [1]; DIO mice, 10, 50 or 100 mg/kg PO 5 weeks) was “dose-dependent manner”. For the same molecule, the weight gain (DIO mice [1]; DIO mice, HFD 14 weeks then 100 mg/kg PO 5 weeks) was “prevented weight gain”, the “glucose tolerance (glucose tolerance test)” value (DIO mice [1]; DIO mice) was “dose-dependent improvements” and the “insulin sensitivity (insulin tolerance test)” value (DIO mice [1]; DIO mice) was “dose-dependent improvements”. For the same molecule, the “glucose tolerance (glucose tolerance test)” value (DIO mice [1]; DIO mice, listed as fexaramine) was “improved glucose clearance”, the “insulin sensitivity (insulin tolerance test)” value (DIO mice [1]; DIO mice, listed as fexaramine) was “improved insulin sensitivity” and the “weight gain at the highest dose” value (DIO mice [1]; DIO mice, highest dose) was “almost completely abrogated”. For the same molecule, the “lipid droplets in liver (histology, hepatic steatosis)” value (DIO mice [2]; DIO mice, 100 mg/kg PO 5 weeks) was “reduction in lipid droplets”, the “serum alanine aminotransferase (ALT) levels” value (DIO mice [2]; DIO mice, 100 mg/kg PO 5 weeks) was “decreased” and the “hepatic expression of gluconeogenic and lipogenic genes” value (DIO mice [2]; [3]) was “reduced hepatic expression”. For the same molecule, the hepatic triglycerides (DIO mice [2]; [3]) was “marked decrease”, the “insulin-mediated suppression of HGP” value (DIO mice [2]; hyperinsulinemic-euglycemic clamp, versus control DIO mice) was “marked increase” and the “basal HGP, GDR, IS-GDR, FFA suppression and fasting insulin levels” value (DIO mice [2]; weight-matched cohorts, hyperinsulinemic-euglycemic clamp) was “No differences”.
